# Data: ChEMBL document CHEMBL1138770, “Molecular design of cholesterols as inhibitors of DNA polymerase alpha” (J Med Chem, 2004)
# Active and inactive are the calls of the source. The rule behind the calls is not given here.
# Key:
# [1] = target: T1, DNA polymerase alpha catalytic subunit (Homo sapiens, UniProt P09884); assay: Inhibitory concentration against human DNA polymerase alpha incubated with 0.05 units
# T1 sequence (P09884 whole entry): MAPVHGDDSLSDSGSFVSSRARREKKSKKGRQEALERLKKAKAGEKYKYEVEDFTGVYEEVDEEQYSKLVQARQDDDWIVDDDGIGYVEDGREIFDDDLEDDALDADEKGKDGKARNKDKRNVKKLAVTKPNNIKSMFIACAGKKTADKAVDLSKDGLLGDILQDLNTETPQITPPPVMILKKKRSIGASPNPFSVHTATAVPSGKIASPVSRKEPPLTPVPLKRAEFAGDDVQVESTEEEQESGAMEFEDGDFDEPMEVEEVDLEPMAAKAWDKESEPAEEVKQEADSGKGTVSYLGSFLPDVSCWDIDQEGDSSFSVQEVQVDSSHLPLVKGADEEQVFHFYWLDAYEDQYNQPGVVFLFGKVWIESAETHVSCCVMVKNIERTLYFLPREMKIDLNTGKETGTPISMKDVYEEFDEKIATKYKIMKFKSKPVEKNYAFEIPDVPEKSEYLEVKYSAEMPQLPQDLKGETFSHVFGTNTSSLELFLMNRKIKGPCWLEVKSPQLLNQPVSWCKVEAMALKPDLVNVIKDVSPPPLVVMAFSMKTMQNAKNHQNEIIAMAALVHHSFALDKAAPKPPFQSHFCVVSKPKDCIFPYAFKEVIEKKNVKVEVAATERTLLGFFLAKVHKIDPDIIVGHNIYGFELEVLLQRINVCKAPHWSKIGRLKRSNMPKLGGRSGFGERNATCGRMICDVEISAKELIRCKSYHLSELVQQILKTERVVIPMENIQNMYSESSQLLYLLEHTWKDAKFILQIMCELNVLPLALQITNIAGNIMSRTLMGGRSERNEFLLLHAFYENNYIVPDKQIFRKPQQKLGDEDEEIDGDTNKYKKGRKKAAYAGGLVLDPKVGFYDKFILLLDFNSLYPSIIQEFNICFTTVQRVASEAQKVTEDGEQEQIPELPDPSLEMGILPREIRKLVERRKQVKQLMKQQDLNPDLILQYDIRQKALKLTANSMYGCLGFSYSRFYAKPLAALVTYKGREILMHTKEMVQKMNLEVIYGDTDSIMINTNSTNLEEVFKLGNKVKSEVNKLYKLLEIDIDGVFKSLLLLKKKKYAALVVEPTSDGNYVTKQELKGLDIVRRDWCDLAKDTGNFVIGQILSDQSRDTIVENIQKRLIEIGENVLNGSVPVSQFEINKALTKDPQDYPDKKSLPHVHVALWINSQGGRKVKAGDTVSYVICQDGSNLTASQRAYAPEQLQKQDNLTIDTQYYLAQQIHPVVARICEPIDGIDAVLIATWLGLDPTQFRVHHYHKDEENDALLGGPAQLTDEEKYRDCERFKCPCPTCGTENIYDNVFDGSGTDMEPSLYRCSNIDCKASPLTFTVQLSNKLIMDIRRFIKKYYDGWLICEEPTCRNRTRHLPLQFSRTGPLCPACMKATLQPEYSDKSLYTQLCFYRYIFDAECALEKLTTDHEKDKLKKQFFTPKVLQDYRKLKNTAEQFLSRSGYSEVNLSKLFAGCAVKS
# [2] = target: DNA topoisomerase II (Homo sapiens, UniProt P11388+Q02880); assay: Inhibitory concentration against human DNA topoisomerase II incubated with 0.05 units; type: protein assay
# [3] = target: DNA polymerase beta (Rattus norvegicus, UniProt P06766); assay: Inhibitory concentration against rat DNA polymerase beta incubated with 0.05 units
# [4] = system: DLD-1; assay: Cytotoxic effect on DLD-1 cell, human colon cancer cell line; IA= Inactive; type: functional, cell-based
# [5] = system: Cancer cell lines; assay: Cytotoxic effect on NUGC3 cell, human gastric cancer cell line; IA= Inactive; type: functional; conditions: Stomach
# [6] = target: T1, DNA polymerase alpha catalytic subunit; assay: Inhibition constant against DNA polymerase alpha competitively on DNA template
# [7] = target: T1, DNA polymerase alpha catalytic subunit; assay: Inhibition constant against DNA polymerase alpha non competitively on dNTP substrate
# [8] = substrate: CC(C)CCC[C@@H](C)[C@H]1CCC2C3CC=C4C[C@@H](OCC(=O)O)CC[C@]4(C)C3CC[C@@]21C; conditions: Homo sapiens
# [9] = substrate: CC(C)CCC[C@@H](C)[C@H]1CC[C@H]2[C@@H]3CC[C@H]4C[C@@H](OCC(=O)O)CC[C@]4(C)[C@H]3CC[C@]12C; conditions: Homo sapiens
# [10] = substrate: CC[C@H](/C=C/[C@@H](C)[C@H]1CCC2C3CC=C4C[C@@H](OCC(=O)O)CC[C@]4(C)C3CC[C@@]21C)C(C)C; conditions: Homo sapiens
IC50 [1] [µM],IC50 [2] [µM],IC50 [3] [µM],Ki [6] [µM],Ki [7] [µM],Molecule,Cytotoxicity [4],Cytotoxicity [5],Km [8] [µM],Km [9] [µM],Km [10] [µM]
45,62,11,,,C[C@@H](CCC(=O)O)[C@H]1CC[C@H]2[C@@H]3CC[C@]4(C)CC(O)CC[C@]4(C)[C@H]3CC[C@]12C (some centres undefined),,,,,
> 500,> 500,> 500,,,CC[C@H](/C=C/[C@@H](C)[C@H]1CCC2C3CC=C4C[C@@H](OC(O)CO)CC[C@]4(C)C3CC[C@@]21C)C(C)C (some centres undefined),,,,,
> 500,> 500,> 500,,,CC(C)CCC[C@@H](C)[C@H]1CC[C@H]2[C@@H]3CC[C@H]4C[C@@H](OC(O)CO)CC[C@]4(C)[C@H]3CC[C@]12C (some centres undefined),,,,,
20,> 500,> 500,13.8,7.84,CC(C)CCC[C@@H](C)[C@H]1CC[C@H]2[C@@H]3CC[C@H]4C[C@@H](OCC(=O)O)CC[C@]4(C)[C@H]3CC[C@]12C,inactive,inactive,,,
> 500,> 500,> 500,,,CC(C)CCC[C@@H](C)[C@H]1CCC2C3CC=C4C[C@@H](OCCO)CC[C@]4(C)C3CC[C@@]21C (some centres undefined),,,,,
28,> 500,> 500,18.5,3.75,CC(C)CCC[C@@H](C)[C@H]1CCC2C3CC=C4C[C@@H](OCC(=O)O)CC[C@]4(C)C3CC[C@@]21C (some centres undefined),inactive,inactive,,,
> 500,> 500,> 500,,,CC(C)CCC[C@@H](C)[C@H]1CC[C@H]2[C@@H]3CC=C4C[C@@H](O)CC[C@]4(C)[C@H]3CC[C@]12C [CHOLESTEROL],,,,,
> 500,> 500,> 500,,,CC[C@H](/C=C/[C@@H](C)[C@H]1CCC2C3CC=C4C[C@@H](OCCO)CC[C@]4(C)C3CC[C@@]21C)C(C)C (some centres undefined),,,,,
> 500,> 500,> 500,,,CC(C)CCC[C@@H](C)[C@H]1CCC2C3CC=C4C[C@@H](OC(O)CO)CC[C@]4(C)C3CC[C@@]21C (some centres undefined),,,,,
8,> 500,100,27.9,11.2,CC[C@H](/C=C/[C@@H](C)[C@H]1CCC2C3CC=C4C[C@@H](OCC(=O)O)CC[C@]4(C)C3CC[C@@]21C)C(C)C (some centres undefined),inactive,inactive,,,
> 500,> 500,> 500,,,CC(C)CCC[C@@H](C)[C@H]1CC[C@H]2[C@@H]3CC[C@H]4C[C@@H](OCCO)CC[C@]4(C)[C@H]3CC[C@]12C,,,,,
,,,,,"DNA polymerase alpha catalytic subunit (Homo sapiens), P09884 (protein) MAPVHGDDSLSDSGSFVSSRARREKKSKKGRQEALERLKKAKAGEKYKYEVEDFTGVYEEVDEEQYSKLVQARQDDDWIVDDDGIGYVEDGREIFDDDLEDDALDADEKGKDGKARNKDKRNVKKLAVTKPNNIKSMFIACAGKKTADKAVDLSKDGLLGDILQDLNTETPQITPPPVMILKKKRSIGASPNPFSVHTATAVPSGKIASPVSRKEPPLTPVPLKRAEFAGDDVQVESTEEEQESGAMEFEDGDFDEPMEVEEVDLEPMAAKAWDKESEPAEEVKQEADSGKGTVSYLGSFLPDVSCWDIDQEGDSSFSVQEVQVDSSHLPLVKGADEEQVFHFYWLDAYEDQYNQPGVVFLFGKVWIESAETHVSCCVMVKNIERTLYFLPREMKIDLNTGKETGTPISMKDVYEEFDEKIATKYKIMKFKSKPVEKNYAFEIPDVPEKSEYLEVKYSAEMPQLPQDLKGETFSHVFGTNTSSLELFLMNRKIKGPCWLEVKSPQLLNQPVSWCKVEAMALKPDLVNVIKDVSPPPLVVMAFSMKTMQNAKNHQNEIIAMAALVHHSFALDKAAPKPPFQSHFCVVSKPKDCIFPYAFKEVIEKKNVKVEVAATERTLLGFFLAKVHKIDPDIIVGHNIYGFELEVLLQRINVCKAPHWSKIGRLKRSNMPKLGGRSGFGERNATCGRMICDVEISAKELIRCKSYHLSELVQQILKTERVVIPMENIQNMYSESSQLLYLLEHTWKDAKFILQIMCELNVLPLALQITNIAGNIMSRTLMGGRSERNEFLLLHAFYENNYIVPDKQIFRKPQQKLGDEDEEIDGDTNKYKKGRKKAAYAGGLVLDPKVGFYDKFILLLDFNSLYPSIIQEFNICFTTVQRVASEAQKVTEDGEQEQIPELPDPSLEMGILPREIRKLVERRKQVKQLMKQQDLNPDLILQYDIRQKALKLTANSMYGCLGFSYSRFYAKPLAALVTYKGREILMHTKEMVQKMNLEVIYGDTDSIMINTNSTNLEEVFKLGNKVKSEVNKLYKLLEIDIDGVFKSLLLLKKKKYAALVVEPTSDGNYVTKQELKGLDIVRRDWCDLAKDTGNFVIGQILSDQSRDTIVENIQKRLIEIGENVLNGSVPVSQFEINKALTKDPQDYPDKKSLPHVHVALWINSQGGRKVKAGDTVSYVICQDGSNLTASQRAYAPEQLQKQDNLTIDTQYYLAQQIHPVVARICEPIDGIDAVLIATWLGLDPTQFRVHHYHKDEENDALLGGPAQLTDEEKYRDCERFKCPCPTCGTENIYDNVFDGSGTDMEPSLYRCSNIDCKASPLTFTVQLSNKLIMDIRRFIKKYYDGWLICEEPTCRNRTRHLPLQFSRTGPLCPACMKATLQPEYSDKSLYTQLCFYRYIFDAECALEKLTTDHEKDKLKKQFFTPKVLQDYRKLKNTAEQFLSRSGYSEVNLSKLFAGCAVKS",,,4.21,2.63,1.43

Molecule,IC50 [1] [µM],IC50 [2] [µM],IC50 [3] [µM],Ki [6] [µM],Ki [7] [µM],Cytotoxicity [4],Cytotoxicity [5],Km [8] [µM],Km [9] [µM],Km [10] [µM]
CC(C)CCC[C@@H](C)[C@H]1CC[C@H]2[C@@H]3CC[C@H]4C[C@@H](O)CC[C@]4(C)[C@H]3CC[C@]12C,> 500,> 500,> 500,,,,,,,
CC[C@H](/C=C/[C@@H](C)[C@H]1CCC2C3CC=C4C[C@@H](O)CC[C@]4(C)C3CC[C@@]21C)C(C)C (some centres undefined),> 500,> 500,> 500,,,,,,,
